Measurements published in ChEMBL document CHEMBL1123401, “Mapping the turkey erythrocyte beta receptor: a distance geometry approach” (J Med Chem, 1986).

Each compound was assayed on Erythrocyte beta receptor (assay: Free energy of binding to turkey erythrocyte beta receptor). Conditions: Meleagris gallopavo.
Set-up: unit not given here

| SMILES | Delta G |
| --- | --- |
| C[C@H](N)[C@H](O)c1ccc(O)c(O)c1 | -9.64 |
| CC(Cc1ccc2c(c1)OCO2)NC[C@H](O)c1ccc(O)c(O)c1 (some centres not stated) | -9.88 |
| CNC[C@H](O)c1ccccc1 | -6.79 |
| C=CCOc1ccccc1OC[C@@H](O)CNC(C)C | -11.6 |
| CC(C)NCC(O)c1ccc(O)c(O)c1 (configuration not stated) | -9.18 |
| C[C@H](COc1ccccc1)NC[C@H](O)c1ccc(O)cc1 | -7.95 |
| CC[C@H](NC(C)C)[C@H](O)c1ccc(NS(C)(=O)=O)cc1 | -7.41 |
| CC(C)NC[C@H](O)c1cccc(O)c1 | -7.99 |
| CC(C)NC[C@H](O)COc1cccc2c(O)cccc12 | -11.2 |
| C[C@H](N)[C@H](O)c1ccc(O)cc1 | -6.27 |
| CC(C)(Cc1ccc(O)cc1)NC[C@H](O)c1cc(O)cc(CO)c1 | -7.61 |
| NC[C@H](O)COc1cccc2ccccc12 | -10.9 |
| CS(=O)(=O)Nc1cc([C@@H](O)CNC2CC2)ccc1O | -8.19 |
| COc1ccc(CCNC[C@H](O)COC2=CC=CC3C(=O)C=CC=C23)cc1OC (some centres not stated) | -11.3 |
| CC(C)NC[C@H](O)c1ccc(O)c(NS(C)(=O)=O)c1 | -7.36 |
| C=CCc1ccccc1OC[C@@H](O)CNC(C)C | -12.1 |
| CC(C)(C)NC[C@H](O)c1cc(O)cc(CO)c1 | -6.58 |
| CNC[C@H](O)c1ccc(O)cc1 | -6.01 |
| CC(C)(C)NC[C@H](O)COc1cccc2[nH]ccc12 | -13.5 |

| SMILES | Delta G |
| --- | --- |
| NC[C@H](O)c1ccc(O)c(O)c1 | -7.26 |
| CC(C)NC[C@H](O)COc1ccccc1I | -12.8 |
| CC(C)(Cc1ccc(O)cc1)NC[C@H](O)COc1cccc2ccccc12 | -11.2 |
| CC(C)NC[C@H](O)c1ccc(NS(C)(=O)=O)cc1 | -8.46 |
| CC(C)(Cc1ccccc1)NC[C@H](O)c1ccc(O)c(NS(C)(=O)=O)c1 | -9.64 |
| Oc1ccc(CCNC[C@H](O)COc2cccc3ccccc23)cc1 | -10.9 |
| NC[C@H](O)c1ccc(O)cc1 | -5.94 |
| CC(C)NC[C@H](O)c1ccc(Cl)c(Cl)c1 | -8.83 |
| CCNC[C@H](O)c1cccc(O)c1 | -6.75 |
| CC(C)NC[C@H](O)COc1ccc(O)c(O)c1 | -9.13 |
| CC(C)NC[C@H](O)c1cc(O)cc(O)c1 | -7.13 |
| CC(CCc1ccccc1)N[C@@H](C)[C@H](O)c1ccc(O)cc1 (some centres not stated) | -9.55 |
| CNC[C@H](O)c1cccc(O)c1 | -6.72 |
| CNC[C@H](O)c1ccc(O)c(O)c1 | -7.86 |
| CC(Cc1ccc(O)cc1)NC[C@H](O)c1ccc(O)c(O)c1 (some centres not stated) | -10.4 |
| CC(C)NC[C@H](O)COc1ccc(N)cc1 | -8.96 |
| CC(C)(C)NC[C@H](O)COC1=CC=CC2C(=O)C=CC=C12 (some centres not stated) | -11.9 |
| CC[C@H](NC(C)C)[C@H](O)c1ccc(O)c(O)c1 | -8.02 |
| CC(C)NC[C@H](O)COc1ccc(O)cc1 | -8.91 |

| SMILES | Delta G |
| --- | --- |
| NC[C@H](O)c1cccc(O)c1 | -7.23 |
| CC(C)(Cc1ccc(O)cc1)NC[C@H](O)COc1cccc2[nH]ccc12 | -14.7 |
| CC(C)NC[C@H](O)c1ccc(O)cc1 | -7.54 |
| CC(C)NC[C@H](O)c1ccc2ccccc2c1 | -9.06 |
| CC(Cc1ccc(O)cc1)NC[C@H](O)c1cc(O)cc(O)c1 (some centres not stated) | -8.62 |
| CC(C)NC[C@H](O)c1ccc(O)c2ncccc12 | -10.4 |
| CC(=O)Nc1ccc(OC[C@@H](O)CNC(C)C)cc1 | -7.54 |
| CC(C)NC[C@@H](O)COc1cccc2ccccc12 | -11.7 |
| CN[C@@H](C)[C@H](O)c1ccc(O)cc1 | -6.47 |
| O[C@@H](CNc1ccccc1)c1ccccc1 | -5.76 |
| CC(C)(C)NC[C@H](O)c1ccc(O)c(CO)c1 | -8.23 |
| CC(C)NC[C@H](O)COc1cccc2[nH]ccc12 | -13 |
| CC(C)NC[C@H](O)c1ccc(NS(C)(=O)=O)c(O)c1 | -6.29 |
| C[C@H](NCCc1ccccc1)[C@H](O)c1ccc(O)cc1 | -9.01 |
| CC(C)NC[C@H](O)c1ccc(O)c(CS(C)(=O)=O)c1 | -7.85 |
| COc1ccc(CC(C)NC[C@H](O)c2ccc(O)c(CO)c2)cc1 (some centres not stated) | -7.65 |
| CC(C)(Cc1ccc(O)cc1)NC[C@H](O)c1ccc(O)c(O)c1 | -10 |
| CCNC[C@H](O)c1ccc(O)c(O)c1 | -7.59 |
| C=CCc1cccc(OC[C@@H](O)CNC(C)C)c1 | -8.82 |
